# Test results as given in patent publication US8686113B2 (priority 2009, dated 2014).
# Where two headings read alike, the source gives them in different places. Non-standard residues stand in square brackets, D forms with d. Residues, ends and D or L forms follow the SMILES beside them. No end group written: not given here.
# Key:
# M. luteus 10240 = test: Growth inhibition assay (microdilution MIC); type: cell-based, Micrococcus luteus; conditions: 10240, 20 h
# How it was run: (§1)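 Broth microdilution in 1% TSB with twofold peptide series, final 128 μg/mL to 62.5 ng/mL, against 5×10^6 bacteria/mL stock suspension added 1:1. Incubated 20 h at 37 °C, growth read by absorbance at 595 nm; MIC is the lowest concentration with no growth, determined in triplicate.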
# [1] = system: Escherichia coli DSM 10233
# Method: (§2) The minimum inhibitory concentrations (MIC) of the antimicrobial peptides and peptide derivatives were determined in microdilution assays. These used a continuous peptide dilution in sterile flat-bottomed 96-well microtiter plates (polystyrene, Greiner Bio-One GmbH, Frickenhausen, Germany) and a total volume of 100 μL per well. The aqueous peptide or peptidomimetic solutions were diluted with 1% TSB water, to obtain a final concentration of 256 μg/mL. 50 μL of the peptide or peptidomimetic solution was pipetted into the first well of each series and stirred. From this solution, 50 μL was transferred to the second well, stirred and again 50 μL was transferred to the next well, and so on. A double dilution series is obtained, beginning at 256 μg/mL in the first well to 125 ng/mL in the twelfth well. The bacteria, e.g. E. coli BL21 A1, were cultured overnight at 37° C. in nutrient broth (NB, Carl Roth GmbH+Co. KG, Karlsruhe, Germany). 50 μL of a 5×10^6 bacteria/mL suspension in 1% TSB was added to each well of the microtiter plate and thus a final concentration of the peptides or peptidomimetics from 128 μg/mL (well 1) to 62.5 ng/mL (well 12) was established in each series. The plates were incubated at 37° C. for 20 h and then the absorption was measured at 595 nm with a TECAN microtiter plate spectrophotometer (Tecan Trading AG, Mannedorf, Switzerland). The MIC values of all peptides and peptidomimetics were determined in triplicate. Sterile water was used as negative control.
# (§3) The peptides shown in Table 8 were investigated for their MIC against pathogenic bacteria such as E. coli DSM 10233, K. pneumoniae DSM 681 and P. aeruginosa DSM 3227.
# [2] = system: Klebsiella pneumoniae DSM 681
# Method: as §2, §3
# E. coli BL21 A1 = type: cell-based, Escherichia coli; conditions: BL21, 20 h
# How it was run: as §1
# [3] = system: P. aeruginosa 10 J. Wilson
# Method: as §2
# (§4) The tests were in this case carried out in Mueller-Hinton medium (¼ concentrated), which is equivalent to 1% TSB.
# E. coli D31 J. Wilson = conditions: ¼ Muller-Hinton medium
# Method: as §2, §4
# E. coli ATCC BAA-457 = conditions: ¼ Muller-Hinton medium
# Method: as §2, §4
# [4] = system: K. pneumoniae K6 ATCC 700603; conditions: ATCC 700603
# Method: as §2, §4
# [5] = system: S. typhimurium ATCC 14028
# Method: as §2, §4
# P. mirabilis ATCC 7002 = conditions: ¼ Muller-Hinton medium
# Method: as §2, §4
# K. pneumoniae ATCC 27799 = conditions: ATCC 27799
# Method: as §2, §4
# K. pneumoniae 012-3131 = system: K. pneumoniae 012-3131
# Method: as §2, §4
# [6] = system: S. typhimurium ATCC 700408
# Method: as §2, §4
# [7] = system: S. typhimurium s5 (J. Weiser); conditions: ¼ Muller-Hinton medium
# Method: as §2, §4
# E. coli 045-849 SENTRY = system: E. coli 045-849 SENTRY
# Method: as §2, §4
# P. vulgaris ATCC 6896 = conditions: ¼ Muller-Hinton medium
# Method: as §2, §4
# [8] = 25% aqueous mouse serum, 37° C., 75 μg/mL peptide
# 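Throughout, for Half-life in 25% mouse serum: intact peptide left at successive time points measured by reversed-phase HPLC with an acetonitrile gradient in the supernatant after precipitation of serum proteins.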
MIC E. coli DSM 10233 [1],MIC K. pneumoniae DSM 681 [2],Molecule,MIC M. luteus 10240 (M. luteus 10240),MIC E. coli BL21 A1 (E. coli BL21 A1),MIC P. aeruginosa 10 J. Wilson [3],MIC E. coli D31 J. Wilson (E. coli D31 J. Wilson),MIC E. coli SEQ 102ATCC # BAA-4 57 (E. coli ATCC BAA-457),MIC K. pneumoniae K6 ATCC 700603 [4],MIC S. typhimurium ATCC 14028 [5],MIC P. mirabilis ATCC 7002 (P. mirabilis ATCC 7002),MIC K. pneumoniae ATCC 27799 (K. pneumoniae ATCC 27799),MIC K. pneumoniae 012-3131 (K. pneumoniae 012-3131),MIC S. typhimurium ATCC 700408 [6],MIC S. typhimurium s5 (J. Weiser) [7],MIC E. coli 045-849 SENTRY (E. coli 045-849 SENTRY; 045-849 SENTRY),MIC P. vulgaris ATCC 6896 (P. vulgaris ATCC 6896),Half-life in 25% mouse serum [8],MIC E. coli 045-849 SENTRY (E. coli 045-849 SENTRY; ¼ Muller-Hinton medium)
4 µg/mL,4 µg/mL,CC[C@H](C)[C@H](NC(=O)[C@@H](CCCNC(=N)N)NC(=O)[C@H](CCCNC(=N)N)NC(=O)[C@@H]1CCCN1C(=O)[C@@H]1CCCN1C(=O)[C@H](CCCNC(=N)N)NC(=O)[C@@H]1CCCN1C(=O)[C@H](CCCNC(=N)N)NC(=O)[C@@H]1CCCN1C(=O)[C@H](CC(C)C)NC(=O)[C@H](Cc1ccc(O)cc1)NC(=O)[C@@H]1CCCN1C(=O)[C@@H]1CCCN1C(=O)[C@H](CCCCN)NC(=O)[C@H](CC(=O)O)NC(=O)[C@@H](N)C(C)C)C(=O)N[C@@H](Cc1ccc(O)cc1)C(=O)N[C@@H](CC(N)=O)C(=O)N[C@@H](CCCNC(=N)N)C(N)=O [compound 111] (H-VDKPPYLPRPRPPR[dR]IYNR-NH2),4 µg/mL,4 µg/mL,,,,,,,,,,,,,,
>32 µg/mL,>32 µg/mL,CC[C@@H](C)[C@@H](NC(=O)[C@@H](Cc1ccc(O)cc1)NC(=O)[C@@H](CC(N)=O)NC(=O)[C@H](N)CCCNC(=N)N)C(=O)N[C@H](CCCNC(=N)N)C(=O)N[C@H](CCCNC(=N)N)C(=O)N1CCC[C@@H]1C(=O)N1CCC[C@@H]1C(=O)N[C@H](CCCNC(=N)N)C(=O)N1CCC[C@@H]1C(=O)N[C@H](CCCNC(=N)N)C(=O)N1CCC[C@@H]1C(=O)N[C@H](CC(C)C)C(=O)N[C@H](Cc1ccc(O)cc1)C(=O)N1CCC[C@@H]1C(=O)N1CCC[C@@H]1C(=O)N[C@H](CCCCN)C(=O)N[C@H](CC(=O)O)C(=O)N[C@@H](C(N)=O)C(C)C [compound 117] (H-[dR][dN][dY][dI][dR][dR][dP][dP][dR][dP][dR][dP][dL][dY][dP][dP][dK][dD][dV]-NH2),32 µg/mL,64 µg/mL,,,,,,,,,,,,,,
,,H-VDKPPYLPRPRPPRRIYNNR-NH2 [compound 15],8 µg/mL,8 µg/mL,16 µg/mL,16 µg/mL,32 µg/mL,32 µg/mL,4 µg/mL,>,64 µg/mL,16 µg/mL,0.5 µg/mL,8 µg/mL,4 µg/mL,>,,
,,VDKPPYLPRPRPPRRIYNNR [compound 14],16 µg/mL,8 µg/mL,,32 µg/mL,64 µg/mL,64 µg/mL,,,128 µg/mL,32 µg/mL,,,,,<30 min,4 µg/mL
